# In patent US11464763B2, “Parasiticidal compositions comprising an isoxazoline active agent, methods and uses thereof” (BOEHRINGER INGELHEIM ANIMAL HEALTH USA INC., priority 2011, dated 2022):
# Legend:
# [1] = test system: Rhipicephalus (Boophilus) microplus; assay: Pour-on tick weight efficacy against Rhipicephalus (Boophilus) microplus in cattle (Example 15); assay type: in vivo
# Description: The efficacy of two pour-on formulations of the invention comprising Compound A at doses of 2.5 mg/kg and 10 mg/kg were tested against infestations of Rhipicephalus (Boophilus) microplus ticks compared with an untreated control. Five healthy head of cattle of 6 to 15 months of age weighing between 100 to 200 kg were used in each study group. Cattle in Group 1 were untreated (control). Cattle in Group 2 were treated on Day 0 with a pour-on formulation comprising Compound A at a concentration of 2.5% (w/v) in DES at a dose of 2.5 mg/kg; and cattle in Group 3 were treated on Day 0 with a pour-on formulation comprising Compound A at a concentration of 10% (w/v) in DES at a dose of 10 mg/kg. Several weeks before treatment, cattle are infested three times a week with approximately 2500 Rhipicephalus (Boophilus) microplus larvae to establish ongoing infestations. Cattle in Groups 2 and 3 were treated with the respective compositions on Day 0 by measuring the required amount of the solution into a marked disposable syringe and applying the material evenly along the mid-line of the back of each animal from the withers to the tail head.
# Each animal was challenged by infestation with approximately 5000 R. microplus larvae on Days 7 and 21 and every 14 days thereafter. Ticks dropping from each animal in the previous 24 hours were collected daily and counted from Day 1 until the end of the study. Since the life cycle of the ticks from the point of infestation with larvae until engorged ticks fall off is approximately 21 days (average), the assessment of efficacy for the challenges on Days 7 and 21 and every 14 days thereafter, was done for a range of 7 or 8 days starting approximately 21 days after the challenge. The assessment of efficacy at the beginning of the study was done from day 1 until Day 21.
# In addition, the ticks collected were weighed as a group to measure the impact of the treatment on the weight gain of the ticks compared to the control to assess the vitality and reproductive capability of the treated ticks. […] Tables 16A and 16B show the % efficacy of the two pour-on formulations based on the weight of the ticks collected. […] As evidenced from the tables and the figures, the pour-on formulations of the invention at both 2.5 mg/kg and 10 mg/kg provide excellent efficacy against Rhipicephalus (Boophilus) microplus ticks for an extended period of time. […] Furthermore, as shown in Tables 16A and 16B, the two pour-on compositions were extremely effective against ticks based on the weight of the ticks collected. […] The extremely long lasting efficacy above 90% for pour-on composition against Rhipicephalus (Boophilus) microplus ticks is remarkable compared with pour-on formulations known in the art.
# Ctenocephalides felis = assay: Long lasting spot-on efficacy against Ctenocephalides felis fleas in cats (Example 9); assay type: in vivo
# Description: The efficacy of spot-on compositions comprising Cmpd. A in DMI at different doses against Ctenocephalides felis fleas in cats was studied. Four treatment groups were formed with five cats per treatment group: Group 1—untreated control; Group 2—Compound A at 5.0% (w/v) in DMI to deliver a dose of 5 mg/kg; Group 3—Compound A at a concentration of 10.0% (w/v) in DMI to deliver a dose of 10 mg/kg; and Group 4—Compound A at a concentration of 15.0% (w/v) in DMI to deliver a dose of 15 mg/kg. Treatment was administered once on Day 0. The cats were each infested with approximately 100 C. felis fleas at each time point evaluated.
# Cats in all treatment groups were infested on Days −1, 0 (approx. 12 h following treatment), 7, 28, 49, 70, 91, 105, 119 and 133. Cats were also infested on Days 126 and 140 (Treatment Groups 1 and 2); Days 147, 154, 155, 161, 168 and 175 (Treatment Groups 1, 3 and 4); Days 182, 189 and 197 (Treatment Groups 1 and 4). After each infestation, fleas were removed and counted approximately 48 hours (±3 hours) for most time points.
smiles,measurement,setting,value
"O=C(CNC(=O)c1ccc(C2=NOC(c3cc(Cl)cc(C(F)(F)F)c3)(C(F)(F)F)C2)c2ccccc12)NCC(F)(F)F (stereo not drawn) [Compound A, 4-[5-[3-chloro-5-(trifluoromethyl)phenyl]-4,5-dihydro-5-(trifluoromethyl)-3-isoxazolyl]-N-[2-oxo-2-[(2,2,2-trifluoroethyl)amino]ethyl]-1-naphthalanecarboxamide]",Average % Efficacy (Tick Weight),"[1]; Group 2: pour-on 2.5% (w/v) in DES, 2.5 mg/kg, Day 1-21",69.1%
same,Average % Efficacy (Tick Weight),"[1]; Group 2: pour-on 2.5% (w/v) in DES, 2.5 mg/kg, Day 28-34, Challenge Day 7",81.8%
same,Average % Efficacy (Tick Weight),"[1]; Group 2: pour-on 2.5% (w/v) in DES, 2.5 mg/kg, Day 41-48, Challenge Day 21",72.9%
same,Average % Efficacy (Tick Weight),"[1]; Group 2: pour-on 2.5% (w/v) in DES, 2.5 mg/kg, Day 55-62, Challenge Day 35",87.7%
same,Average % Efficacy (Tick Weight),"[1]; Group 2: pour-on 2.5% (w/v) in DES, 2.5 mg/kg, Day 69-76, Challenge Day 49",84.8%
same,Average % Efficacy (Tick Weight),"[1]; Group 2: pour-on 2.5% (w/v) in DES, 2.5 mg/kg, Day 83-90, Challenge Day 63",87.4%
same,Average % Efficacy (Tick Weight),"[1]; Group 2: pour-on 2.5% (w/v) in DES, 2.5 mg/kg, Day 97-104, Challenge Day 77",76.0%
same,Average % Efficacy (Tick Weight),"[1]; Group 2: pour-on 2.5% (w/v) in DES, 2.5 mg/kg, Day 111-118, Challenge Day 91",74.0%
same,Average % Efficacy (Tick Weight),"[1]; Group 2: pour-on 2.5% (w/v) in DES, 2.5 mg/kg, Day 132-139, Challenge Day 112",83.2%
same,Average % Efficacy (Tick Weight),"[1]; Group 2: pour-on 2.5% (w/v) in DES, 2.5 mg/kg, Day 146-153, Challenge Day 126",20.6%
same,Average % Efficacy (Tick Weight),"[1]; Group 2: pour-on 2.5% (w/v) in DES, 2.5 mg/kg, Day 160-167, Challenge Day 140",63.4%
same,Average % Efficacy (Tick Weight),"[1]; Group 3: pour-on 10% (w/v) in DES, 10 mg/kg, Day 1-21",85.4%
same,Average % Efficacy (Tick Weight),"[1]; Group 3: pour-on 10% (w/v) in DES, 10 mg/kg, Day 28-34, Challenge Day 7",95.2%
same,Average % Efficacy (Tick Weight),"[1]; Group 3: pour-on 10% (w/v) in DES, 10 mg/kg, Day 41-48, Challenge Day 21",98.3%
same,Average % Efficacy (Tick Weight),"[1]; Group 3: pour-on 10% (w/v) in DES, 10 mg/kg, Day 55-62, Challenge Day 35",96.6%
same,Average % Efficacy (Tick Weight),"[1]; Group 3: pour-on 10% (w/v) in DES, 10 mg/kg, Day 69-76, Challenge Day 49",99.2%
same,Average % Efficacy (Tick Weight),"[1]; Group 3: pour-on 10% (w/v) in DES, 10 mg/kg, Day 83-90, Challenge Day 63",98.6%
same,Average % Efficacy (Tick Weight),"[1]; Group 3: pour-on 10% (w/v) in DES, 10 mg/kg, Day 97-104, Challenge Day 77",90.2%
same,Average % Efficacy (Tick Weight),"[1]; Group 3: pour-on 10% (w/v) in DES, 10 mg/kg, Day 111-118, Challenge Day 91",96.0%
same,Average % Efficacy (Tick Weight),"[1]; Group 3: pour-on 10% (w/v) in DES, 10 mg/kg, Day 132-139, Challenge Day 112",92.4%
same,Average % Efficacy (Tick Weight),"[1]; Group 3: pour-on 10% (w/v) in DES, 10 mg/kg, Day 146-153, Challenge Day 126",61.4%
same,Average % Efficacy (Tick Weight),"[1]; Group 3: pour-on 10% (w/v) in DES, 10 mg/kg, Day 160-167, Challenge Day 140",76.3%
same,efficacy against fleas,"Ctenocephalides felis; Group 2 (5 mg/kg), up to Day 121",90%
same,% Reduction Fleas,"Ctenocephalides felis; Group 2: 5.0% in DMI, 5 mg/kg, Day 0 (12 hr)",61.1%
same,% Reduction Fleas,"Ctenocephalides felis; Group 2: 5.0% in DMI, 5 mg/kg, Day 2",100.0%
same,% Reduction Fleas,"Ctenocephalides felis; Group 2: 5.0% in DMI, 5 mg/kg, Day 9",100.0%
same,% Reduction Fleas,"Ctenocephalides felis; Group 2: 5.0% in DMI, 5 mg/kg, Day 30",100.0%
same,% Reduction Fleas,"Ctenocephalides felis; Group 2: 5.0% in DMI, 5 mg/kg, Day 51",100.0%
same,% Reduction Fleas,"Ctenocephalides felis; Group 2: 5.0% in DMI, 5 mg/kg, Day 72",100.0%
same,% Reduction Fleas,"Ctenocephalides felis; Group 2: 5.0% in DMI, 5 mg/kg, Day 93",100.0%
same,% Reduction Fleas,"Ctenocephalides felis; Group 2: 5.0% in DMI, 5 mg/kg, Day 107",100.0%
same,% Reduction Fleas,"Ctenocephalides felis; Group 2: 5.0% in DMI, 5 mg/kg, Day 121",92.3%
same,% Reduction Fleas,"Ctenocephalides felis; Group 2: 5.0% in DMI, 5 mg/kg, Day 128",89.1%
same,% Reduction Fleas,"Ctenocephalides felis; Group 2: 5.0% in DMI, 5 mg/kg, Day 135",88.3%
same,% Reduction Fleas,"Ctenocephalides felis; Group 2: 5.0% in DMI, 5 mg/kg, Day 142",80.0%
same,efficacy against fleas,"Ctenocephalides felis; Group 3 (10 mg/kg), up to Day 163",90%
same,% Reduction Fleas,"Ctenocephalides felis; Group 3: 10.0% in DMI, 10 mg/kg, Day 0 (12 hr)",95.4%
same,% Reduction Fleas,"Ctenocephalides felis; Group 3: 10.0% in DMI, 10 mg/kg, Day 2",100.0%
same,% Reduction Fleas,"Ctenocephalides felis; Group 3: 10.0% in DMI, 10 mg/kg, Day 9",100.0%
same,% Reduction Fleas,"Ctenocephalides felis; Group 3: 10.0% in DMI, 10 mg/kg, Day 30",100.0%
same,% Reduction Fleas,"Ctenocephalides felis; Group 3: 10.0% in DMI, 10 mg/kg, Day 51",100.0%
same,% Reduction Fleas,"Ctenocephalides felis; Group 3: 10.0% in DMI, 10 mg/kg, Day 72",100.0%
same,% Reduction Fleas,"Ctenocephalides felis; Group 3: 10.0% in DMI, 10 mg/kg, Day 93",100.0%
same,% Reduction Fleas,"Ctenocephalides felis; Group 3: 10.0% in DMI, 10 mg/kg, Day 107",100.0%
same,% Reduction Fleas,"Ctenocephalides felis; Group 3: 10.0% in DMI, 10 mg/kg, Day 121",100.0%
same,% Reduction Fleas,"Ctenocephalides felis; Group 3: 10.0% in DMI, 10 mg/kg, Day 135",99.8%
same,% Reduction Fleas,"Ctenocephalides felis; Group 3: 10.0% in DMI, 10 mg/kg, Day 149",99.5%
same,% Reduction Fleas,"Ctenocephalides felis; Group 3: 10.0% in DMI, 10 mg/kg, Day 155",50.0%
same,% Reduction Fleas,"Ctenocephalides felis; Group 3: 10.0% in DMI, 10 mg/kg, Day 157",98.1%
same,% Reduction Fleas,"Ctenocephalides felis; Group 3: 10.0% in DMI, 10 mg/kg, Day 163",94.5%
same,% Reduction Fleas,"Ctenocephalides felis; Group 3: 10.0% in DMI, 10 mg/kg, Day 170",87.8%
same,% Reduction Fleas,"Ctenocephalides felis; Group 3: 10.0% in DMI, 10 mg/kg, Day 177",70.8%
same,efficacy against fleas,"Ctenocephalides felis; Group 4 (15 mg/kg), up to Day 191",90%
same,% Reduction Fleas,"Ctenocephalides felis; Group 4: 15.0% in DMI, 15 mg/kg, Day 0 (12 hr)",85.3%
same,% Reduction Fleas,"Ctenocephalides felis; Group 4: 15.0% in DMI, 15 mg/kg, Day 2",100.0%
same,% Reduction Fleas,"Ctenocephalides felis; Group 4: 15.0% in DMI, 15 mg/kg, Day 9",100.0%
same,% Reduction Fleas,"Ctenocephalides felis; Group 4: 15.0% in DMI, 15 mg/kg, Day 30",100.0%
same,% Reduction Fleas,"Ctenocephalides felis; Group 4: 15.0% in DMI, 15 mg/kg, Day 51",100.0%
same,% Reduction Fleas,"Ctenocephalides felis; Group 4: 15.0% in DMI, 15 mg/kg, Day 72",100.0%
same,% Reduction Fleas,"Ctenocephalides felis; Group 4: 15.0% in DMI, 15 mg/kg, Day 93",100.0%
same,% Reduction Fleas,"Ctenocephalides felis; Group 4: 15.0% in DMI, 15 mg/kg, Day 107",100.0%
same,% Reduction Fleas,"Ctenocephalides felis; Group 4: 15.0% in DMI, 15 mg/kg, Day 121",100.0%
same,% Reduction Fleas,"Ctenocephalides felis; Group 4: 15.0% in DMI, 15 mg/kg, Day 135",100.0%
same,% Reduction Fleas,"Ctenocephalides felis; Group 4: 15.0% in DMI, 15 mg/kg, Day 149",100.0%
same,% Reduction Fleas,"Ctenocephalides felis; Group 4: 15.0% in DMI, 15 mg/kg, Day 155",78.0%
same,% Reduction Fleas,"Ctenocephalides felis; Group 4: 15.0% in DMI, 15 mg/kg, Day 157",100.0%
same,% Reduction Fleas,"Ctenocephalides felis; Group 4: 15.0% in DMI, 15 mg/kg, Day 163",100.0%
same,% Reduction Fleas,"Ctenocephalides felis; Group 4: 15.0% in DMI, 15 mg/kg, Day 170",96.2%
same,% Reduction Fleas,"Ctenocephalides felis; Group 4: 15.0% in DMI, 15 mg/kg, Day 177",94.8%
same,% Reduction Fleas,"Ctenocephalides felis; Group 4: 15.0% in DMI, 15 mg/kg, Day 184",95.7%
same,% Reduction Fleas,"Ctenocephalides felis; Group 4: 15.0% in DMI, 15 mg/kg, Day 191",90.6%
same,% Reduction Fleas,"Ctenocephalides felis; Group 4: 15.0% in DMI, 15 mg/kg, Day 199",79.2%
